According to ChEMBL document CHEMBL3885861, “Open TG-GATES”:

Organism: Rattus norvegicus
Assay: Open TG-GATES - Regimen: Daily Repeat
Type: toxicity, organism-based, Sprague-Dawley
Parameters: regimen Daily Repeat, gender Male, age 6 weeks
Details: in vivo, po, route gavage; for APTT / Bas / Eos / Fbg / Hb / Ht / Lym / MCH / MCHC / MCV / Mono / Neu / PT / Plat / RBC / Ret / WBC: tissue Blood; for KIDNEY_L / KIDNEY_R / KIDNEY_TOTAL: tissue Kidney; for LIVER: tissue Liver; for A/G / ALP / ALT / AST / BUN / CRE / Ca / Cl / DBIL / GLC / IP / K / LDH / Na / PL / RALB / TBIL / TC / TG / TP / gamma-GTP: tissue Plasma
[1] = 100 mg/kg, 72 h, dose level Middle, time 3 day
[2] = 100 mg/kg, […], dose level Middle, time 7 day
[3] = 100 mg/kg, […], dose level Middle, time 14 day
[4] = 100 mg/kg, […], dose level Middle, time 28 day
[5] = 300 mg/kg, 72 h, dose level High, time 3 day
[6] = 300 mg/kg, […], dose level High, time 7 day
[7] = 300 mg/kg, […], dose level High, time 14 day
[8] = 300 mg/kg, […], dose level High, time 28 day

## O=C(O)COc1nn(Cc2ccccc2)c2ccccc12 [BENDAZAC]
[1]
  TERMINAL_BW: 231.3 g
  APTT: 17.2 s
  Bas: 0%
  Eos: 1%
  Fbg: 205 mg/dL
  Hb: 13.5 g/dL
  Ht: 40.4%
  Lym: 80.6%
  MCH: 21.6 pg
  MCHC: 33.4%
  MCV: 64.8 fL
  Mono: 6.8%
  Neu: 11.8%
  PT: 11.8 s
  Plat: 116.4 x10_4/uL
  RBC: 624.4 x10_4/ul
  Ret: 7.1%
  WBC: 112.6 x10_2/uL
  KIDNEY_L: 1 g
  KIDNEY_R: 1.1 g
  KIDNEY_TOTAL: 2.1 g
  LIVER: 11.7 g
  A/G: 2
  ALP: 987.2 IU/L
  ALT: 39.8 IU/L
  AST: 65.6 IU/L
  BUN: 15.8 mg/dL
  CRE: 0.6 mg/dL
  Ca: 10.8 mg/dL
  Cl: 104.2 meq/L
  DBIL: 0.048 mg/dL
  GLC: 199.8 mg/dL
  IP: 7 mg/dL
  K: 4.5 meq/L
  LDH: 107.6 IU/L
  Na: 140 meq/L
  PL: 153.6 mg/dL
  RALB: 3.8 g/dL
  TBIL: 0.4 mg/dL
  TC: 82 mg/dL
  TG: 79.8 mg/dL
  TP: 5.7 g/dL
  gamma-GTP: 1 IU/L
[2]
  TERMINAL_BW: 259.9 g
  APTT: 17.3 s
  Bas: 0%
  Eos: 1.2%
  Fbg: 229.2 mg/dL
  Hb: 14.1 g/dL
  Ht: 41%
  Lym: 76.8%
  MCH: 21.7 pg
  MCHC: 34.3%
  MCV: 63.2 fL
  Mono: 8.4%
  Neu: 14%
  PT: 11.7 s
  Plat: 139.2 x10_4/uL
  RBC: 649.8 x10_4/ul
  Ret: 6.8%
  WBC: 114.5 x10_2/uL
  KIDNEY_L: 1.2 g
  KIDNEY_R: 1.1 g
  KIDNEY_TOTAL: 2.3 g
  LIVER: 13.1 g
  A/G: 2
  ALP: 927.8 IU/L
  ALT: 31.6 IU/L
  AST: 55.8 IU/L
  BUN: 18.8 mg/dL
  CRE: 0.5 mg/dL
  Ca: 11.1 mg/dL
  Cl: 105.6 meq/L
  DBIL: 0.014 mg/dL
  GLC: 206 mg/dL
  IP: 6.6 mg/dL
  K: 4.4 meq/L
  LDH: 110.8 IU/L
  Na: 140.6 meq/L
  PL: 141 mg/dL
  RALB: 3.8 g/dL
  TBIL: 0.4 mg/dL
  TC: 71.8 mg/dL
  TG: 108.6 mg/dL
  TP: 5.7 g/dL
  gamma-GTP: 1 IU/L
[3]
  TERMINAL_BW: 309.7 g
  APTT: 17.7 s
  Bas: 0%
  Eos: 1%
  Fbg: 213.4 mg/dL
  Hb: 14.6 g/dL
  Ht: 43.2%
  Lym: 83.2%
  MCH: 20.5 pg
  MCHC: 33.9%
  MCV: 60.4 fL
  Mono: 4.8%
  Neu: 11.4%
  PT: 11.4 s
  Plat: 126.3 x10_4/uL
  RBC: 715 x10_4/ul
  Ret: 2.9%
  WBC: 124.2 x10_2/uL
  KIDNEY_L: 1.2 g
  KIDNEY_R: 1.3 g
  KIDNEY_TOTAL: 2.5 g
  LIVER: 14.8 g
  A/G: 1.6
  ALP: 909.2 IU/L
  ALT: 32.2 IU/L
  AST: 63 IU/L
  BUN: 18.8 mg/dL
  CRE: 0.6 mg/dL
  Ca: 10.3 mg/dL
  Cl: 106 meq/L
  DBIL: 0.04 mg/dL
  GLC: 198.6 mg/dL
  IP: 6.5 mg/dL
  K: 4.5 meq/L
  LDH: 108 IU/L
  Na: 140.8 meq/L
  PL: 145.6 mg/dL
  RALB: 3.8 g/dL
  TBIL: 0.4 mg/dL
  TC: 68 mg/dL
  TG: 125.4 mg/dL
  TP: 6.2 g/dL
  gamma-GTP: 1.8 IU/L
[4]
  TERMINAL_BW: 386.1 g
  APTT: 18.1 s
  Bas: 0%
  Eos: 1.2%
  Fbg: 216.6 mg/dL
  Hb: 15.6 g/dL
  Ht: 45.8%
  Lym: 87%
  MCH: 19.5 pg
  MCHC: 34%
  MCV: 57.2 fL
  Mono: 2.2%
  Neu: 9%
  PT: 12 s
  Plat: 113.7 x10_4/uL
  RBC: 801.2 x10_4/ul
  Ret: 2.2%
  WBC: 131.2 x10_2/uL
  KIDNEY_L: 1.4 g
  KIDNEY_R: 1.4 g
  KIDNEY_TOTAL: 2.8 g
  LIVER: 17.3 g
  A/G: 1.4
  ALP: 669.2 IU/L
  ALT: 31.4 IU/L
  AST: 62.4 IU/L
  BUN: 20 mg/dL
  CRE: 0.6 mg/dL
  Ca: 9.7 mg/dL
  Cl: 103.8 meq/L
  DBIL: 0.02 mg/dL
  GLC: 189.2 mg/dL
  IP: 5.7 mg/dL
  K: 4.4 meq/L
  LDH: 102.8 IU/L
  Na: 139.6 meq/L
  PL: 136.8 mg/dL
  RALB: 3.7 g/dL
  TBIL: 0.4 mg/dL
  TC: 61.4 mg/dL
  TG: 154.4 mg/dL
  TP: 6.2 g/dL
  gamma-GTP: 1.2 IU/L
[5]
  TERMINAL_BW: 223.3 g
  APTT: 19 s
  Bas: 0%
  Eos: 0.8%
  Fbg: 218 mg/dL
  Hb: 14.2 g/dL
  Ht: 42%
  Lym: 75.2%
  MCH: 21.6 pg
  MCHC: 33.7%
  MCV: 64.2 fL
  Mono: 9.2%
  Neu: 14.4%
  PT: 12.3 s
  Plat: 133.3 x10_4/uL
  RBC: 655.2 x10_4/ul
  Ret: 6.2%
  WBC: 109.6 x10_2/uL
  KIDNEY_L: 1 g
  KIDNEY_R: 1.1 g
  KIDNEY_TOTAL: 2.1 g
  LIVER: 13.4 g
  A/G: 2.3
  ALP: 1088.6 IU/L
  ALT: 44.4 IU/L
  AST: 75.8 IU/L
  BUN: 17.4 mg/dL
  CRE: 0.6 mg/dL
  Ca: 10.8 mg/dL
  Cl: 103.6 meq/L
  DBIL: 0.076 mg/dL
  GLC: 192.6 mg/dL
  IP: 5.8 mg/dL
  K: 4.4 meq/L
  LDH: 141.8 IU/L
  Na: 140.4 meq/L
  PL: 131 mg/dL
  RALB: 3.8 g/dL
  TBIL: 0.8 mg/dL
  TC: 66.2 mg/dL
  TG: 68.8 mg/dL
  TP: 5.5 g/dL
  gamma-GTP: 1.2 IU/L
[6]
  TERMINAL_BW: 261 g
  APTT: 20.2 s
  Bas: 0%
  Eos: 0.8%
  Fbg: 207.6 mg/dL
  Hb: 13.8 g/dL
  Ht: 40.6%
  Lym: 83%
  MCH: 21.5 pg
  MCHC: 34%
  MCV: 63.3 fL
  Mono: 5.2%
  Neu: 11.4%
  PT: 12.6 s
  Plat: 132.2 x10_4/uL
  RBC: 641.6 x10_4/ul
  Ret: 6.1%
  WBC: 123 x10_2/uL
  KIDNEY_L: 1.2 g
  KIDNEY_R: 1.2 g
  KIDNEY_TOTAL: 2.3 g
  LIVER: 14.9 g
  A/G: 2
  ALP: 1331.4 IU/L
  ALT: 37 IU/L
  AST: 67.6 IU/L
  BUN: 19.6 mg/dL
  CRE: 0.5 mg/dL
  Ca: 11.1 mg/dL
  Cl: 105 meq/L
  DBIL: 0.022 mg/dL
  GLC: 196.8 mg/dL
  IP: 5.8 mg/dL
  K: 4.4 meq/L
  LDH: 115.8 IU/L
  Na: 141 meq/L
  PL: 121 mg/dL
  RALB: 3.8 g/dL
  TBIL: 0.8 mg/dL
  TC: 63.6 mg/dL
  TG: 55.2 mg/dL
  TP: 5.7 g/dL
  gamma-GTP: 1 IU/L
[7]
  TERMINAL_BW: 307.2 g
  APTT: 18.9 s
  Bas: 0%
  Eos: 0.6%
  Fbg: 213.6 mg/dL
  Hb: 14.7 g/dL
  Ht: 43%
  Lym: 83%
  MCH: 20.9 pg
  MCHC: 34%
  MCV: 61.3 fL
  Mono: 5.6%
  Neu: 10.8%
  PT: 11.7 s
  Plat: 128.4 x10_4/uL
  RBC: 702.2 x10_4/ul
  Ret: 3%
  WBC: 117.7 x10_2/uL
  KIDNEY_L: 1.2 g
  KIDNEY_R: 1.2 g
  KIDNEY_TOTAL: 2.5 g
  LIVER: 17 g
  A/G: 1.9
  ALP: 903.6 IU/L
  ALT: 36.6 IU/L
  AST: 60.8 IU/L
  BUN: 20.4 mg/dL
  CRE: 0.5 mg/dL
  Ca: 10.3 mg/dL
  Cl: 105.2 meq/L
  DBIL: 0.024 mg/dL
  GLC: 185.6 mg/dL
  IP: 5.3 mg/dL
  K: 4.2 meq/L
  LDH: 105.6 IU/L
  Na: 140.8 meq/L
  PL: 130.2 mg/dL
  RALB: 3.9 g/dL
  TBIL: 0.7 mg/dL
  TC: 62.4 mg/dL
  TG: 79.4 mg/dL
  TP: 6.1 g/dL
  gamma-GTP: 1.4 IU/L
[8]
  TERMINAL_BW: 410 g
  APTT: 21 s
  Bas: 0%
  Eos: 1%
  Fbg: 216.5 mg/dL
  Hb: 14.8 g/dL
  Ht: 43.9%
  Lym: 83.2%
  MCH: 19.5 pg
  MCHC: 33.8%
  MCV: 57.8 fL
  Mono: 5.5%
  Neu: 10.8%
  PT: 13.5 s
  Plat: 114.5 x10_4/uL
  RBC: 760.5 x10_4/ul
  Ret: 3.2%
  WBC: 142.5 x10_2/uL
  KIDNEY_L: 1.6 g
  KIDNEY_R: 1.6 g
  KIDNEY_TOTAL: 3.2 g
  LIVER: 21.1 g
  A/G: 1.6
  ALP: 768 IU/L
  ALT: 34 IU/L
  AST: 57 IU/L
  BUN: 20.2 mg/dL
  CRE: 0.6 mg/dL
  Ca: 9.9 mg/dL
  Cl: 103 meq/L
  DBIL: 0.0525 mg/dL
  GLC: 187 mg/dL
  IP: 5 mg/dL
  K: 4 meq/L
  LDH: 72 IU/L
  Na: 140 meq/L
  PL: 117 mg/dL
  RALB: 3.7 g/dL
  TBIL: 0.9 mg/dL
  TC: 54.8 mg/dL
  TG: 57.8 mg/dL
  TP: 6.2 g/dL
  gamma-GTP: 1.5 IU/L
